Data reported in patent US20230029259A1, “COMBINATION OF IAP INHIBITORS AND PARP OR MEK INHIBITORS OR OTHER CHEMOTHERAPEUTIC AGENTS” (Ascentage Pharma (Suzhou) Co., Ltd., priority 2019, published 2023).
Where “and” joins values, the source holds several entries; their conditions need not be identical. Equal values may be shown once.

How the values were obtained:
[1] = tested on: pancreatic cancer patient derived xenograft model PA6265; assay: Antitumor activity in subcutaneous pancreatic cancer PDX model PA6265 (Biological Example 1); assay type: in vivo, BALB/c nude mice; conditions: olaparib 50 mg/kg p.o. BID, trametinib 0.3 mg/kg p.o. QD, 4 weeks; for T/C (%) @ D29: day 29 (text: day 28), Example 24 10 mg/kg i.v. QW; for RTV @ D29: day 29, Example 24 10 mg/kg i.v. QW
Source text: (§1) Balb/c nude, female, 4-6 weeks, weighing approximately 18-22 g, which were purchased from GemPharmatech Co., Ltd (Nanjing, Jiangsu).
(§2) All of the PDX models were originally established from a surgically resected clinical sample (cancer type: pancreatic adenocarcinoma), and implanted in nude mice defined as passage 0 (P0). The next passage implanted from P0 tumor was defined as passage1 (P1), and so on during continual implantation in mice. The frozen tumor fragments were revived in NOD SCID mice, when the tumors were developed to suitable size, they were passaged to Balb/c nude mice. The P4-P7 tumors were used for the study.
(§3) Each group consisted of 5 tumor-bearing mice.
(§4) The protocol and any amendment(s) or procedures involving the care and use of animals in this study were reviewed and approved by the Institutional Animal Care and Use Committee (IACUC) of CrownBio prior to execution. During the study, the care and use of animals were conducted in accordance with the regulations of the Association for Assessment and Accreditation of Laboratory Animal Care (AAALAC). After tumor inoculation, the animals were checked daily for morbidity and mortality. During routine monitoring, the animals were checked for any effects of tumor growth and treatments on behavior such as mobility, food and water consumption, body weight gain/loss, eye/hair matting and any other abnormalities. Mortality and observed clinical signs were recorded for individual animals in detail.
(§5) After randomization, tumor volumes were measured twice per week in two dimensions using a caliper, and the volume was expressed in mm^3 using the formula: […]
(§6) where V is tumor volume, L is tumor length (the longest tumor dimension) and W is tumor width (perpendicular to L). Body weight was measured twice per week. Dosing as well as tumor and body weight measurements were conducted in a Laminar Flow Cabinet. The body weights and tumor volumes were measured by using StudyDirector™ software (version 3.1.399.19).
(§7) Relative tumor volume (RTV) was calculated using the following formula: […]
(§8) where V1 and Vt are the average tumor volumes on the first day of treatment (day 1) and the average tumor volumes on a certain time point (day t).
(§9) Synergy score was calculated using the following formula described in Clarke R. Issues in experimental design and endpoint analysis in the study of experimental cytotoxic agents in vivo in breast cancer and other models[J]. Breast Cancer Research & Treatment, 1997, 46(2-3):255-278, which is incorporated by reference in its entirety:
(§10) Synergy score=((A/C)×(B/C))/(AB/C),
(§11) where A is RTV value of drug A; B is RTV value of drug B; C is RTV value of vehicle control. AB is RTV value of combination treatment with A and B. Synergy scores: >1 represents synergistic, =1 represents additive, <1 represents antagonistic (referring to Gould S E et al. Translational value of mouse models in oncology drug development. Nature medicine. 2015 21, 431-439).
(§12) Standard NCI procedures were used to calculate tumor parameters. Percent tumor growth inhibition (% T/C) was calculated as the mean RTV of treated tumors (T) divided by the mean RTV of control tumors (C)×100%. The percentage T/C value is an indication of antitumor effectiveness: a value of T/C<42% is considered significant antitumor activity by the NCI. A T/C value <10% is considered to indicate highly significant antitumor activity, and is the level used by the NCI to justify a clinical trial if toxicity and certain other requirements are met (termed DN-2 level activity). A body weight loss nadir (mean of group) of greater than 20%, or greater than 20% of drug deaths are considered to indicate an excessively toxic dosage.
(§13) The antitumor activity curves of test articles were plotted with the observation time on the X-axis, and corresponding tumor volume (geometric mean) on the Y-axis. A two-tailed t-test was employed to analyze the statistical significance of any difference between the treatment group and the control group. […]

[2] = tested on: pancreatic cancer patient derived xenograft (PDX) model PA1170; assay: Antitumor activity in subcutaneous pancreatic cancer PDX model PA1170 (Biological Example 1); assay type: in vivo, BALB/c nude mice; conditions: day 28, Example 24 10 mg/kg i.v. QW, olaparib 50 mg/kg p.o. BID, trametinib 0.3 mg/kg p.o. QD, 4 ws
Source text: as §1, §2, §3, §4, §5, §6, §7, §8, §9, §10, §11, §12, §13

[3] = tested on: PA1170 pancreatic cancer patient-derived xenograft model; assay: Antitumor activity in PA1170 pancreatic cancer PDX model, confirmation study (Biological Example 3); assay type: in vivo, mice; conditions: for RTV @ D29 / T/C (%) @ D29: day 29, Example 24 10 mg/kg IV, olaparib 50 mg/kg p.o. BID, trametinib 0.3 mg/kg p.o. QD, 4 weeks
[4] = tested on: murine pancreatic cancer model mPA6115; assay: Antitumor activity in murine pancreatic cancer model mPA6115 (Biological Example 2)
Source text: C57BL/6, female, 6-8 weeks, weighing approximately 18-20 g, which were purchased from Shanghai Lingchang Biotechnology Co., Ltd (Shanghai, China).
mPA6115 is a murine pancreatic cancer cell line carries a conditional mutant KRAS (KrasLSL-G12D/WT), a constitutive deletion of TP53 (p53−/−) and a Cre driven by the promoter of Pdx1 gene.
Fresh tumor tissues from mice bearing established primary cancer tissues were harvested and cut into small pieces (approximately 2-3 mm in diameter). Tumor fragments, harvested from donor mice, were inoculated subcutaneously at the upper right dorsal flank into corresponding female C57BL/6 mice for tumor development. Treatments were started when the average tumor size reached approximately 150 mm^3. Randomization were performed based on “Matched distribution” method/“Stratified” method using the multi-task method (StudyDirector™ software, version 3.1.399.19)/randomized block design. Each group consisted of 6 tumor-bearing mice.

[5] = tested on: Panc-1 human pancreatic cancer xenograft model; conditions: Panc-1 xenograft, day 27; abraxane 30 mg/kg i.v. QW×3w, gemcitabine 120 mg/kg i.p. QW×3w
[6] = mPA6115, day 21, Example 24 0.2 mg/kg i.v. BIW×3w, abraxane 15 mg/kg i.v. QW×3w, gemcitabine 120 mg/kg i.p. QW×3w

Structure (SMILES) | T/C (%) @ D29 [1] | T/C (%) @ D29 ([1]; listed as trametinib) | RTV @ D29 [1] | RTV @ D28 [2] | T/C (%) @ D28 [2] | T/C (%) @ D28 ([2]; listed as trametinib) | RTV @ D29 [3] | T/C (%) @ D29 [3] | T/C (%) @ D29 ([3]; listed as trametinib) | T/C (%) @ D29 ([1]; listed as olaparib) | T/C (%) @ D28 ([2]; listed as olaparib) | T/C (%) @ D29 ([3]; listed as olaparib) | antitumor effect (in words) ([4]; mPA6115, day 21, single agent 0.2 mg/kg i.v. BIW×3w) | RTV @ D21 [4, 6] | T/C (%) @ D21 [4, 6] | Response @ D21 ([4]; mPA6115, day 21, animals with PD or died / animals) | RTV @ D27 [5] | T/C (%) @ D27 [5] | Response @ D28 ([3]; responders/animals (CR, SD))
CC(=O)Nc1cccc(-n2c(=O)n(C3CC3)c(=O)c3c(Nc4ccc(I)cc4F)n(C)c(=O)c(C)c32)c1 [Trametinib] | 76.01% | 76% | 4.31 ± 0.98 | 6.59 ± 0.41 | 68.57% | 69% | 7.34 ± 1.49 | 86.25% | 86.3% | – | – | – | – | – | – | – | – | – | –
O=C(c1cc(Cc2n[nH]c(=O)c3ccccc23)ccc1F)N1CCN(C(=O)C2CC2)CC1 [Olaparib] | 71.78% | – | 4.07 ± 0.51 | 3.09 ± 0.73 | 32.15% | – | 1.90 ± 1.13 | 22.33% | – | 72% | 32% | 22.3% | – | – | – | – | – | – | –
CN[C@@H](C)C(=O)N[C@H]1CN(S(=O)(=O)c2cccc(S(=O)(=O)N3CC[C@H]4CC[C@@H](C(=O)NC(c5ccccc5)c5ccccc5)N4C(=O)[C@@H](NC(=O)[C@H](C)NC)C3)c2)CC[C@H]2CCC(C(=O)NC(c3ccccc3)c3ccccc3)N2C1=O (stereo partly drawn) [the compound of Example 24] | – | – | – | – | – | – | 4.29 ± 1.83 | 50.4% and 50.41% | – | – | – | – | no antitumor effect | 32.77 ± 10.36 | 144.28% | 5/6 PD, 1/6 died | 2.63 ± 0.51 | 66.1% and 66.08% | 1/5 SD
